These compounds were tested on P493-6 (myc "on") cells (assay: Cell proliferation assay). Settings: P493-6, 72 h, read-out: Cell prolif P493 72 h IC50.
Assay type: cell-based
Protocol: P493-6 (myc “on”) cells were maintained in growth media (RPMI-1640, 10% FBS, 2 mM glutamine, 100 units/ml Penicillin and 100 μg/ml streptomycin) at 37° C. with 5% CO2. For compound assay, P493-6 cells were plated in 96-well V-bottom plates on the day of compound addition in 50 μl of growth media at a cell density of 200,000 cells/ml (10,000 cells/well). Compounds were serially diluted in 100% DMSO at 200-times the final concentration. Compounds were diluted 100-fold into growth media and then 50 μl of this mixture was added to cell plates making the final concentration of DMSO 0.5%. Cells were incubated with compound for 72 hrs at 37° C. with 5% CO2 and analyzed for antiproliferative effects either by Cell Titer Glo (Promega) or FACS analysis using the Viacount (Millipore) kit on the Guava instrument.

| Structure (SMILES) | IC50 |
| --- | --- |
| O=C(Cc1ccccc1)Nc1nnc(CCSCCc2nnc(NC(=O)Cc3ccccc3)s2)s1 [Compound 1] | 470 nM |
| CCCC(=O)OCN(C(=O)Cc1ccccc1)c1nnc(CCCCc2ccc(NC(=O)Cc3ccccc3)nn2)s1 [Compound 402] | 54 nM |
| CC(C)(C)OC(=O)NCc1cccc(CC(=O)Nc2nnc(CCCCc3ccc(NC(=O)Cc4cccc(OC(F)(F)F)c4)nn3)s2)c1 [Compound 586] | 31 nM |
| CCOC(=O)NCc1cccc(CC(=O)Nc2nnc(CCCCc3ccc(NC(=O)Cc4cccc(OC(F)(F)F)c4)nn3)s2)c1 [Compound 600] | 8 nM |
| O=C(Cc1ccccc1OC(F)(F)F)Nc1ccc(CCCCc2nnc(NC(=O)Cc3ccccc3)s2)nn1 [Compound 614] | 82 nM |
| O=C(Cc1ccc(OC(F)(F)F)cc1)Nc1ccc(CCCCc2nnc(NC(=O)Cc3ccccc3)s2)nn1 [Compound 615] | 120 nM |
| CCCC(=O)OCN(C(=O)Cc1ccccc1)c1nnc(CCCCc2ccc(NC(=O)Cc3cccc(OC(F)(F)F)c3)nn2)s1 [Compound 629] | 65 nM |
| CC(C(=O)Nc1nnc(CCCCc2ccc(NC(=O)Cc3cccc(OC(F)(F)F)c3)nn2)s1)c1ccccc1 (stereo not shown) [Compound 636] | 59 nM |
| Nc1nnc(CCCCc2ccc(NC(=O)Cc3cccc(OC(F)(F)F)c3)nn2)s1 [Compound 657] | 1500 nM |
| COc1cccc(CC(=O)Nc2nnc(CCCCc3ccc(NC(=O)Cc4cccc(OC(F)(F)F)c4)nn3)s2)c1 [Compound 658] | 40 nM |
| O=C(Cc1cccc(OC(F)(F)F)c1)Nc1ccc(CCCCc2nnc(NC(=O)Cc3cc(F)ccc3F)s2)nn1 [Compound 659] | 58 nM |
| O=C(Cc1cccc(OC(F)(F)F)c1)Nc1ccc(CCCCc2nnc(NC(=O)Cc3ccc(F)cc3)s2)nn1 [Compound 661] | 120 nM |
| O=C(Cc1cccc(OC(F)(F)F)c1)Nc1ccc(CCCCc2nnc(NC(=O)Cc3cc(F)cc(F)c3)s2)nn1 [Compound 662] | 55 nM |
| O=C(Cc1cccc(OC(F)(F)F)c1)Nc1ccc(CCCCc2nnc(NC(=O)Cc3cccc(F)c3F)s2)nn1 [Compound 663] | 89 nM |
| O=C(Cc1cccc(OC(F)F)c1)Nc1ccc(CCCCc2nnc(NC(=O)Cc3ccccc3)s2)nn1 [Compound 666] | 58 nM |
| O=C(Cc1cccc(OC(F)(F)F)c1)Nc1ccc(CCCCc2nnc(NC(=O)Cc3cccc(OC(F)F)c3)s2)nn1 [Compound 668] | 26 nM |
| O=C(Cc1cccc(OC(F)(F)F)c1)Nc1ccc(CCCCc2nnc(NC(=O)Cc3cccc(OCC(F)(F)F)c3)s2)nn1 [Compound 669] | 26 nM |
| O=C(Cc1cccc(OC(F)(F)F)c1)Nc1ccc(CCCCc2nnc(NC(=O)Cc3cccnc3)s2)nn1 [Compound 671] | 35 nM |
| O=C(Cc1cccc(OC(F)(F)F)c1)Nc1ccc(CCCCc2nnc(NC(=O)Cc3ccncc3)s2)nn1 [Compound 672] | 45 nM |
| O=C(Cc1cccc(OC(F)(F)F)c1)Nc1ccc(CCCCc2nnc(NC(=O)Cc3ccccc3F)s2)nn1 [Compound 673] | 33 nM |
| CSc1cccc(CC(=O)Nc2nnc(CCCCc3ccc(NC(=O)Cc4cccc(OC(F)(F)F)c4)nn3)s2)c1 [Compound 674] | 24 nM |
| O=C(Cc1cccc(OC(F)(F)F)c1)Nc1ccc(CCCCc2nnc(NC(=O)Cc3cncnc3)s2)nn1 [Compound 675] | 40 nM |

| Structure (SMILES) | IC50 |
| --- | --- |
| O=C(Cc1cccc(OC(F)(F)F)c1)Nc1ccc(CCCCc2nnc(NC(=O)Cc3cnccn3)s2)nn1 [Compound 676] | 30 nM |
| O=C(Cc1cccc(OC(F)(F)F)c1)Nc1ccc(CCCCc2nnc(NC(=O)Cc3ccon3)s2)nn1 [Compound 677] | 56 nM |
| O=C(Cc1cccc(OC(F)(F)F)c1)Nc1ccc(CCCCc2nnc(NC(=O)Cc3cscn3)s2)nn1 [Compound 678] | 26 nM |
| O=C(Cc1cccc(OC(F)(F)F)c1)Nc1ccc(CCCCc2nnc(NC(=O)Cc3cccc(Cl)c3)s2)nn1 [Compound 680] | 33 nM |
| CS(=O)(=O)c1cccc(CC(=O)Nc2nnc(CCCCc3ccc(NC(=O)Cc4cccc(OC(F)(F)F)c4)nn3)s2)c1 [Compound 681] | 19 nM |
| C[S+]([O-])c1cccc(CC(=O)Nc2nnc(CCCCc3ccc(NC(=O)Cc4cccc(OC(F)(F)F)c4)nn3)s2)c1 (stereo not shown) [Compound 682] | 17 nM |
| O=C(Cc1cccc(OC(F)(F)F)c1)Nc1ccc(CCCCc2nnc(NC(=O)Cc3ccc(Cl)nc3)s2)nn1 [Compound 683] | 24 nM |
| COCCC(C(=O)Nc1nnc(CCCCc2ccc(NC(=O)Cc3cccc(OC(F)(F)F)c3)nn2)s1)c1cccnc1 (stereo not shown) [Compound 684] | 42 nM |
| Cn1cc(CC(=O)Nc2nnc(CCCCc3ccc(NC(=O)Cc4cccc(OC(F)(F)F)c4)nn3)s2)cn1 [Compound 685] | 22 nM |
| Cc1c(CC(=O)Nc2nnc(CCCCc3ccc(NC(=O)Cc4cccc(OC(F)(F)F)c4)nn3)s2)cnn1C [Compound 686] | 10 nM |
| Cn1ccc(CC(=O)Nc2nnc(CCCCc3ccc(NC(=O)Cc4cccc(OC(F)(F)F)c4)nn3)s2)n1 [Compound 687] | 11 nM |
| Cc1nc(CC(=O)Nc2nnc(CCCCc3ccc(NC(=O)Cc4cccc(OC(F)(F)F)c4)nn3)s2)c(C)s1 [Compound 688] | 12 nM |
| O=C(Cc1cccc(OC(F)(F)F)c1)Nc1ccc(CCCCc2nnc(NC(=O)C(O)c3ccccc3)s2)nn1 (stereo not shown) [Compound 689] | 13 nM |
| O=C(Cc1cccc(OC(F)(F)F)c1)Nc1ccc(CCCCc2nnc(NC(=O)C(OC(=O)C(O)c3ccccc3)c3ccccc3)s2)nn1 (stereo not shown) [Compound 690] | 17 nM |
| N#Cc1cccc(CC(=O)Nc2nnc(CCCCc3ccc(NC(=O)Cc4cccc(OC(F)(F)F)c4)nn3)s2)c1 [Compound 692] | 20 nM |
| O=C(Cc1cccc(OC(F)(F)F)c1)Nc1ccc(CCCCc2nnc(NC(=O)Cn3cccn3)s2)nn1 [Compound 693] | 70 nM |
| Cc1nn(C(=O)OC(C)(C)C)c(C)c1CC(=O)Nc1nnc(CCCCc2ccc(NC(=O)Cc3cccc(OC(F)(F)F)c3)nn2)s1 [Compound 694] | 29 nM |
| Cc1n[nH]c(C)c1CC(=O)Nc1nnc(CCCCc2ccc(NC(=O)Cc3cccc(OC(F)(F)F)c3)nn2)s1 [Compound 695] | 30 nM |
| CC(C)(C)OC(=O)n1cnc(CC(=O)Nc2nnc(CCCCc3ccc(NC(=O)Cc4cccc(OC(F)(F)F)c4)nn3)s2)c1 [Compound 696] | 34 nM |
| O=C(Cc1cccc(OC(F)(F)F)c1)Nc1ccc(CCCCc2nnc(NC(=O)Cc3c[nH]cn3)s2)nn1 [Compound 697] | 50 nM |
| Cc1ccn(CC(=O)Nc2nnc(CCCCc3ccc(NC(=O)Cc4cccc(OC(F)(F)F)c4)nn3)s2)n1 [Compound 698] | 98 nM |
| CC(C)c1cn(CC(=O)Nc2nnc(CCCCc3ccc(NC(=O)Cc4cccc(OC(F)(F)F)c4)nn3)s2)nn1 [Compound 699] | 120 nM |

| Structure (SMILES) | IC50 |
| --- | --- |
| O=C(Cc1cccc(OC(F)(F)F)c1)Nc1ccc(CCCCc2nnc(NC(=O)Cn3cc(Cl)cn3)s2)nn1 [Compound 700] | 170 nM |
| Cc1cc(C)n(CC(=O)Nc2nnc(CCCCc3ccc(NC(=O)Cc4cccc(OC(F)(F)F)c4)nn3)s2)n1 [Compound 701] | 110 nM |
| O=C(Cc1cccc(OC(F)(F)F)c1)Nc1ccc(CCCCc2nnc(NC(=O)Cn3c(CN4CCOCC4)nc4ccccc43)s2)nn1 [Compound 702] | 310 nM |
| O=C(Cc1cccc(OC(F)(F)F)c1)Nc1ccc(CCCCc2nnc(NC(=O)CN3C[C@@H](O)CC3=O)s2)nn1 [Compound 704] | 880 nM |
| Nc1ccc(CCCCc2nnc(NC(=O)Cc3ccccn3)s2)nn1 [Compound 706] | 14000 nM |
| O=C(Cc1cccc(OC(F)(F)F)c1)Nc1ccc(CCCCc2nnc(NC(=O)CN3CCCCC3=O)s2)nn1 [Compound 707] | 85 nM |
| O=C(Cc1cccc(OC(F)(F)F)c1)Nc1ccc(CCCCc2nnc(NC(=O)CN3C(=O)CCC3=O)s2)nn1 [Compound 708] | 2800 nM |
| O=C(Cc1cccc(OC(F)(F)F)c1)Nc1ccc(CCCCc2nnc(NC(=O)CN3CCCC3=O)s2)nn1 [Compound 709] | 140 nM |
| O=C(Cc1ccccn1)Nc1nnc(CCCCc2ccc(NC(=O)C(O)c3ccccc3)nn2)s1 (stereo not shown) [Compound 715] | 390 nM |
| O=C(Cc1cccc(OC(F)(F)F)c1)Nc1ccc(CCCCc2nnc(NC(=O)Cc3cccc[n+]3[O-])s2)nn1 [Compound 716] | 180 nM |
| COc1ccc(OC(F)(F)F)cc1CC(=O)Nc1ccc(CCCCc2nnc(NC(=O)Cc3ccccn3)s2)nn1 [Compound 717] | 190 nM |
| O=C(Cc1cc(OC(F)(F)F)ccc1O)Nc1ccc(CCCCc2nnc(NC(=O)Cc3ccccn3)s2)nn1 [Compound 718] | 15 nM |
| O=C(Cc1ccc(F)c(OC(F)(F)F)c1)Nc1ccc(CCCCc2nnc(NC(=O)Cc3ccccn3)s2)nn1 [Compound 719] | 10 nM |
| O=C(Cc1cc(OC(F)(F)F)ccc1F)Nc1ccc(CCCCc2nnc(NC(=O)Cc3ccccn3)s2)nn1 [Compound 720] | 920 nM |
| O=C(Cc1ccc(Cl)c(OC(F)(F)F)c1)Nc1ccc(CCCCc2nnc(NC(=O)Cc3ccccn3)s2)nn1 [Compound 721] | 22 nM |
| COc1ccc(CC(=O)Nc2ccc(CCCCc3nnc(NC(=O)Cc4ccccn4)s3)nn2)cc1OC(F)(F)F [Compound 722] | 16 nM |
| O=C(Cc1ccc(O)c(OC(F)(F)F)c1)Nc1ccc(CCCCc2nnc(NC(=O)Cc3ccccn3)s2)nn1 [Compound 723] | 20 nM |
| CC(C)(C)OC(=O)Nc1cccc(CC(=O)Nc2nnc(CCCCc3ccc(NC(=O)Cc4cccc(OC(F)(F)F)c4)nn3)s2)n1 [Compound 724] | 34 nM |
| Nc1cccc(CC(=O)Nc2nnc(CCCCc3ccc(NC(=O)Cc4cccc(OC(F)(F)F)c4)nn3)s2)n1 [Compound 725] | 150 nM |
| [2H]C([2H])(CCc1nnc(N)s1)C([2H])([2H])c1ccc(NC(=O)Cc2cccc(OC(F)(F)F)c2)nn1 [Compound 726] | 610 nM |
